Structures can show the parent of a compound that is named as a salt.
How the values were obtained:
[1] = test system: SUN1 in siLMNA cells; assay: SUN1 expression and localization in siLMNA cells; format: cell-based, human
Method: (§1) Cells were washed with PBS and fixed for 20 minutes with 2% PFA in PBS. Cells were permeabilised for 5 minutes with PBS/0.2% Triton X-100, and blocked with PBS/0.2% Tween 20 (PBS-T) containing 5% BSA. Coverslips were incubated for 1 hour with primary antibodies and for 30 minutes with appropriate secondary antibodies coupled to Alexa Fluor 488 or 594 fluorophores (Life Technologies), before being incubated with 2 μg/ml DAPI. Pictures were acquired with a FluoView 1000 confocal microscope (Olympus). For high resolution imaging, z-stacks were acquired with a Deltavision PersonalDV (Applied Precision, 1024×1024 CoolSNAP HQ2 camera, z-stack of 0.2 μm interval) or with a Deltavision OMX V3 in conventional mode (Applied Precision, 512×512 Cascade II cameras (Photometrics), z-stack of 0.125 μm interval) both equipped with a 100× UPlanSApo/1.40 oil objective (Olympus) and controlled with SoftWoRx software (Applied Precision). Deconvolutions were then performed with SoftWoRx (Applied Precision) in conservative mode. The different channels were acquired sequentially.

[2] = test system: microtubule network of cells; assay: Microtubule network by immunofluorescence of α-Tubulin; format: cell-based
Method: as §1

[3] = test system: siLMNA cells; assay: Golgi apparatus integrity (anti-Giantin) in siLMNA cells; format: cell-based, human
Text: FIG. 13: Inhibiting NAT10 acetyltransferase activity modifies microtubule organisation to rescue nuclear shape defects. A) Microtubule network visualisation by inverted IF pictures of α-Tubulin. B) Nuclear shape visualisation after treating cells with microtubule or actin cytoskeleton disrupting agents. C) Visualisation of nuclear shape (DAPI) and Golgi (anti-Giantin) integrity in siLMNA cells. D) Fractionation of polymerised (P) and soluble (S) tubulin upon Remodelin or nocodazole (Nocod.) treatment. […] Right: quantification of cells with the indicated patterns (means of three independent experiments with n>103±s.e.m.). F) Laminopathic cells have enlarged, misshapen nuclei associated with disorganized chromatin structure. Upon Remodelin treatment, NAT10 acetyltransferase activity is inhibited, leading to disruption of microtubule anchorage at the centrosome and release of microtubule forces on the nuclear envelope. This release of mechanical stress on the nucleus contributes to nuclear shape rescue and global improvement of cellular fitness and chromatin organization. Scale bars: 20 μm.
Cells were washed with PBS and fixed for 20 minutes with 2% PFA in PBS. Cells were permeabilised for 5 minutes with PBS/0.2% Triton X-100, and blocked with PBS/0.2% Tween 20 (PBS-T) containing 5% BSA. […]

[4] = test system: tubulin in U2OS cells; assay: Analysis of soluble or polymerised tubulin; format: cell-based, human; details: 5 μM Remodelin 16 hours
Method: U2OS cells pre-treated with 5 μM Remodelin for 16 hours or with 10 μM nocodazole for 8 hours, were lysed in MT Stabilization Buffer (MSB) (85 mM PIPES [pH 6.9], 1 mM EGTA, 1 mM MgCl2, 2M glycerol, 0.5% Triton with 4 μg/ml Taxol). Lysates were kept at 4° C. for 2 minutes and then centrifuged for 10 minutes at 13,000 rpm. Supernatants, representing the soluble fraction of proteins, were transferred to new tubes, and Laemmli buffer was added. Pellets, representing the polymerized fraction of proteins, were washed once in MSB without Triton, and then resuspended in Laemmli buffer. Equal amounts of lysate were loaded on a gradient gel.

[5] = test system: GFP-H2B expressing U2OS cells transfected with siLMNA; assay: Live imaging of GFP-H2B cells; format: cell-based, human; details: Compound 2 at 50 μM, independently of mitosis
Method: U2OS cells were transfected with siLMNA for 48 hours before addition of (Compound 2) at 50 μM. Pictures were acquired every 15 minutes for 16 hours in z-stack of 0.2 μm interval with a Deltavision PersonalDV (Applied Precision, 512×512 CoolSNAP HQ2 camera) equipped with a 100× UPlanSApo/1.40 oil objective (Olympus) and controlled with SoftWoRx software (Applied Precision). Movies were then assembled from pictures with ImageJ software.

Row | SMILES | expression and localization of SUN1 [1] | microtubule network organization [2] | Golgi apparatus integrity [3] | tubulin assembly into polymers [4] | time to complete nuclear shape rescue [5] [h]
1 | N#Cc1ccc(-c2csc(NN=C3CCCC3)n2)cc1 [Compound 1, 4-(4-Cyanophenyl)-2-(2-cyclopentylidenehydrazinyl)thiazole] | does not detectably affect the expression and localization of SUN1 | striking reorganization | did not affect Golgi apparatus integrity | did not affect Golgi apparatus integrity (FIG. 13C) or tubulin assembly into polymers | 
2 | Clc1ccc(-c2csc(NN=C3CCCC3)n2)cc1 [Compound 2, 4-(4-Chlorophenyl)-2-(2-cyclopentylidenehydrazinyl)thiazole Hydrochloride Salt] |  |  |  |  | ≤ 12

Source: patent US9809562B2, “NAT10 modulators for treating or preventing laminopathies, aging and cancer” (CAMBRIDGE ENTERPRISE LIMITED, priority 2014, dated 2017)
